Patent US20210220184A1, “ABSORBENT TAMPON FOR TREATMENT OF MENSTRUAL SYMPTOMS” (Anne's Day Ltd, priority 2018, published 2021)

Tested on: women with a history of mild or sever dysmenorrhea
Assay: Clinical study of tampon with CBD (randomized, controlled, crossover, two menstrual cycles; questionnaire and diary data)
Assay type: in vivo
Conditions: tests performed by the inventors; cannabidiol provided on the tampon
Experimental: The following study was performed to assess the safety and efficacy of a tampon covered with CBD oil.
Patients and Samples. A total of 130 women aged between 18 and 42 with a history of mild or sever dysmenorrhea were recruited for this study.
Study design. […] Patients were divided into two groups. One group used a hemp, CBD-infused tampon. The tampon contained […] of CBD oil. The tampon consisted of highly absorbent organic hemp fibers and organic hemp overwrap, organic cotton stitching thread and organic cotton removal cord, and a layer of CBD oil sprayed on top of the hemp overwrap. A second group used a standard off-the-shelf tampon product as a control. The off-the-shelf tampon consisted of blended rayon and viscose fibers with a non-woven rayon overwrap, cotton stitching thread and removal cord.
In a first visit, a patient underwent a gynecological exam and had blood drawn to test for STIs. If the patient fit inclusion criteria, in a second visit, the patient was divided into an experimental group or control group. A control test for levels of CBD in the bloodstream was performed on all participants and the results recorded. All participants were given diaries and instructed to write a detailed account of the comfort of tampon insertion and removal, comfort of wear, and levels of pain experienced. […]

SMILES: C=C(C)[C@@H]1CCC(C)=C[C@H]1c1c(O)cc(CCCCC)cc1O [cannabidiol]
- vaginal delivery from the tampon to treat symptoms associated with menstruation: can be delivered vaginally
